According to patent publication EP3705117A1, “MELATONIN HAVING IMPROVED WATER SOLUBILITY, ITS PREPARATION AND USES THEREOF” (Tradichem Industrial Services, S.L., priority 2019, dated 2020):

Assay type: physicochemical
Conditions: for melatonin available in the solution / solubilized: 7 min, 0.2 mg/mL
Experimental: The water solubility of non-compacted melatonin (starting material used for compaction in Example 1) and the solubility of the compacted melatonin prepared in Example 1 were compared.
Three samples of 10 mg each of non-compacted melatonin and three samples of 10 mg each of compacted melatonin were introduced in separate beakers and tap water at 22 °C was added to each beaker to a volume of 10, 25 or 50 ml (assays A, B and C, respectively). Each tested mixture was sonicated for 5 minutes and subsequently subjected to magnetic stirring at 200 rpm for 2 more minutes.

Structure (SMILES) | Solubility test, assay A (10 mg / 10 ml) | Solubility test, assay B (10 mg / 25 ml) | melatonin available in the solution / solubilized [%] | dissolution rate compared with non-compacted melatonin (ocular inspection, in each of assays A, B and C (10 mg in 10, 25 or 50 ml water)) | melatonin remained as solid, not dissolved (HPLC analysis, assay C, 10 mg in 50 ml tap water at 22 °C) [%]
COc1ccc2[nH]cc(CCNC(C)=O)c2c1 [Compacted-melatonin, N-[2-(5-methoxy-1H-indol-3-yl)ethyl)acetamide] | (partially dissolved) | (partially dissolved) | 100 | higher dissolution rate | 
COc1ccc2[nH]cc(CCNC(C)=O)c2c1 [Non-compacted melatonin, N-[2-(5-methoxy-1H-indol-3-yl)ethyl)acetamide] | (partially dissolved) | (partially dissolved) | 79 |  | 21
